According to EP1219619B1, “3-AMINO-2-[…] DERIVATIVES AS SUBSTANCE P ANTAGONISTS” (HISAMITSU PHARMACEUTICAL CO. INC., priority 1999, dated 2001):
pKi: −log10 of the molar value. Counter-ions that a name gives are not always drawn. Like-named read-outs stand apart in the source and are kept apart here.

How the values were obtained:
[1] = test system: male ferrets; experiment: Antiemetic action against cisplatin-induced vomiting; type: in vivo; conditions: test compound 3 mg/kg intravenously; cisplatin 10 mg/kg intraperitoneal; observed over six hours; inhibition vs control group, number of episodes
Description: A test was conducted using male ferrets (around 1.2 kg body weight) as follows. Vomiting was induced by intraperitoneal administration of 10 mg/kg of cisplatin to the ferrets in a volume of 3 ml/kg. […] Each test compound was administered intravenously through radial skin at a dose of 3 mg/kg, and immediately after the administration, cisplatin was administered intraperitoneally. Then vomiting symptoms due to cisplatin was observed over six hours. […] The results are shown in Table 2 in terms of rates of inhibition to a control group using the number of times symptoms of vomiting occurred as an index.

[2] = biological target: T1, NK1 TACHYKININ RECEPTOR, HUMAN(CHO) (Homo sapiens, UniProt P25103); experiment: biochemical
Description: (§1) As a sample, NK1 TACHYKININ RECEPTOR, HUMAN(CHO) diluted with incubation buffer (20 mM HEPES/NaOH buffer containing 1 mM MgCl2, 0.1% BSA: pH 7.4) was used (18.75 µg protein/ml). […] And 20 µl of CP-99,994 (final concentration of 1.5 µM) and 20 µl of distilled water were added to determine the amount of nonspecific binding and the amount of total binding, respectively. […] After one hour of incubation, the incubated mixture was filtered with suction and washed with a wash buffer (50 mM Tris/HCl buffer: pH 7.4) four times. The membrane fitted to each well of the MultiScreen was completely dried and punched inside each vial, and 5 ml of cocktail was added to give a sample to be measured.

[3] = biological target: T1, NK1 TACHYKININ RECEPTOR, HUMAN(CHO)
Description: as §1

T1 sequence (P25103 whole entry): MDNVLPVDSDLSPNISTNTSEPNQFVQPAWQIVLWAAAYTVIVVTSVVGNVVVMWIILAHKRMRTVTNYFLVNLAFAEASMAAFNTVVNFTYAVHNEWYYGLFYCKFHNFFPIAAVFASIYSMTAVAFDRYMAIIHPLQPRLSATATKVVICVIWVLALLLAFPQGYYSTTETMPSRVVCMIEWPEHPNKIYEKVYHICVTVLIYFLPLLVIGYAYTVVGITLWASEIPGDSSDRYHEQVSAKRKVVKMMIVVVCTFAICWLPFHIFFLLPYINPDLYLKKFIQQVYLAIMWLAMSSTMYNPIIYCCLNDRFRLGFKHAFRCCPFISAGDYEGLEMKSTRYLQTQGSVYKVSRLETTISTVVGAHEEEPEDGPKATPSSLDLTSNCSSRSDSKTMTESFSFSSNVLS

Row | Compound | pKi [2] | Rate of Inhibition (%) Retching [1] [%] | Rate of Inhibition (%) Vomiting [1] [%] | pKi [3]
1 | Cl.c1ccc([C@@H]2NCCC[C@@H]2NCc2cc(-n3cnnn3)cc3c2OCC3)cc1 [Example 3, (2S,3S)-3-[(5-(tetrazole-1-yl)-2,3-dihydrobenzofuran-7-yl)methyl]amino-2-phenylpiperidine hydrochloride] | 9.74 | 59.1 | 61.0 | –
2 | Cl.FC(F)(F)c1nc(-c2cc3c(c(CN[C@H]4CCCN[C@H]4c4ccccc4)c2)OCC3)no1 [Example 15, (2S, 3S)-3-[(5-(5-trifluoromethyl-1,2,4-oxadiazole-3-yl)-2,3-dihydrobenzofuran-7-yl)methyl]amino-2-phenylpiperidine hydrochloride] | – | 63.2 | 66.8 | –
3 | (2S,3S)-3-[(5-phenyl-2,3-dihydrobenzofuran-7-yl)methyl]amino-2-phenylpiperidine hydrochloride [Example 9] | – | 68.4 | 59.3 | 9.39

Second part, led by results:

Row | pKi [2] | Compound | Rate of Inhibition (%) Retching [1] [%] | Rate of Inhibition (%) Vomiting [1] [%] | pKi [3]
4 | 9.00 | Cl.FC(F)(F)c1ccc(-c2cc3c(c(CN[C@H]4CCCN[C@H]4c4ccccc4)c2)OCC3)cc1 [Example 12, (2S,3S)-3-[(5-(4-trifluoromethylphenyl)-2,3-dihydrobenzofuran-7-yl)methyl]amino-2-phenylpiperidine hydrochloride] | 88.4 | 91.1 | –
5 | 9.46 | c1ccc([C@@H]2NCCC[C@@H]2NCc2cc(-c3cccs3)cc3c2OCC3)cc1 [Example 6, (2S,3S)-3-[(5-(thiophene-2-yl)-2,3-dihydrobenzofuran-7-yl)methyl]amino-2-phenylpiperidine hydrochloride] | – | – | –
6 | 9.46 | c1ccc([C@@H]2NCCC[C@@H]2NCc2cc(-c3ccsc3)cc3c2OCC3)cc1 [Example 7, (2S,3S)-3-[(5-(thiophene-3-yl)-2,3-dihydrobenzofuran-7-yl)methyl]amino-2-phenylpiperidine hydrochloride] | – | – | –
7 | 8.82 | Cl.c1ccc([C@@H]2NCCC[C@@H]2NCc2c3c(cc4c2OCC4)OCC3)cc1 [Example 16, (2S,3S)-3-[(2,3,6,7-tetrahydrobenzo[1,2-b:4,5-b']difuran-4-yl)methyl]amino-2-phenylpiperidine hydrochloride] | 58.7 | 62.6 | –
